Measured values: US11116757B2 (priority 2015, dated 2021)

What follows are compounds tested against DCN1-UBC12 interaction (Homo sapiens (Human), UniProt Q96GG9) (assay: biochemical). Details: read-out: TR-FRET IC50.
Sequence of DCN1-UBC12 interaction (Q96GG9 60-248 limits assumed): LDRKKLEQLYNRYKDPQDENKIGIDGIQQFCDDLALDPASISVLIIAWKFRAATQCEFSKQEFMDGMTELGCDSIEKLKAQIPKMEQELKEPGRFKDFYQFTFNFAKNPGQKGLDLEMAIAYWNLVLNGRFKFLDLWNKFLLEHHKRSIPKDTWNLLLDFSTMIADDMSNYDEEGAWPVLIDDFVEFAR
Assay type: binding
`CCCN1CCC(NC(=O)Nc2ccc(C)c(Cl)c2)CC1` [B34] was tested, and the IC50 was > 55.5 µM.
In the case of `COCCn1ccc(NC(=O)NC2CCN(Cc3ccccc3)CC2)n1` [B35], the IC50 is reported as > 55.9 µM.
`CC1CC(NC(=O)NC2CCCNC2=O)CCN1Cc1ccccc1` (stereo not drawn) [B36] was tested, and the IC50 was > 57.8 µM.
For `O=C(CN1CCN(c2ccccc2)CC1)Nc1cccc(C(F)(F)F)c1` [B37], the IC50 was > 60.6 µM.
`CC(Cc1cccc(C(F)(F)F)c1)NC1CCN(Cc2ccccc2)CC1` (stereo not drawn) [B38] was tested, and the IC50 was > 61.3 µM.
With `O=C(Nc1cccc2ccccc12)NC1CCN(Cc2ccccc2)CC1` [B39] the IC50 was > 61.8 µM.
With `O=C(Nc1cccc(C(F)(F)F)c1)N1CCN(C(c2ccccc2)c2ccccc2)CC1` [B40] the IC50 was > 62.8 µM.
In the case of `O=C(NCc1cccc(C(F)(F)F)c1)C1CCN(Cc2ccccc2)CC1` [B41], the IC50 is reported as > 63.9 µM.
`CC1CC(NC(=O)Nc2cnn(C)c2)CCN1Cc1ccccc1` (stereo not drawn) [B42] was tested, and the IC50 was > 64.4 µM.
`O=C(Nc1ccc(F)cc1)NC1CCN(Cc2ccccc2)CC1` [B43] was tested, and the IC50 was > 64.5 µM.
With `CSc1cccc(NC(=O)NC2CCN(Cc3ccccc3)CC2)c1` [B44] the IC50 was > 64.5 µM.
In the case of `COc1cc(CN2CCC(NC(=O)Nc3ccccc3)CC2)cc(OC)c1OC` [B45], the IC50 is reported as > 65.5 µM.
With `O=C(Nc1ccc(C(=O)N2CCOCC2)cc1)Nc1cccc(C(F)(F)F)c1` [B46] the IC50 was > 66.3 µM.
`CCn1cnc(NC(=O)NC2CCN(Cc3ccccc3)CC2)n1` [B47] was tested, and the IC50 was > 67 µM.
`O=C(NCCN1CCN(Cc2ccccc2C(F)(F)F)CC1)Nc1ccccc1` [B48] was tested, and the IC50 was > 67 µM.
For `O=C(Nc1ccc(Br)cc1Cl)NC1CCN(Cc2ccccc2)CC1` [B50], the IC50 was > 67.6 µM.
In the case of `CCCN1CCC(NC(=O)Nc2ccccc2Cl)CC1` [B51], the IC50 is reported as > 67.6 µM.
With `CCc1ccc(NC(=O)NC2CCN(Cc3ccccc3)CC2)cc1` [B52] the IC50 was > 67.6 µM.
In the case of `CCc1ccccc1NC(=O)NC1CCN(Cc2ccccc2)CC1` [B53], the IC50 is reported as > 67.6 µM.
For `CCN1CCC(NC(=O)Nc2cc(Cl)ccc2Cl)CC1` [B54], the IC50 was > 67.6 µM.
In the case of `O=C(Nc1ccccc1Cl)NC1CCN(Cc2ccccc2)CC1` [B55], the IC50 is reported as > 67.6 µM.
With `CCCN1CCC(NC(=O)Nc2ccc(Cl)c(Cl)c2)CC1` [B56] the IC50 was > 67.6 µM.
With `Cc1cccc(NC(=O)NC2CCN(Cc3ccccc3)CC2)c1` [B57] the IC50 was > 67.6 µM.
For `O=C(Nc1ccc(Cl)cc1)NC1CCN(Cc2ccccc2)CC1` [B58], the IC50 was > 67.6 µM.
`Cc1ccc(NC(=O)NC2CCN(Cc3ccccc3)CC2)cc1Cl` [B59, 1-(1-Benzylpiperidin-4-yl)-3-(3-Chloro-4-Methylphenyl)Urea] was tested, and the IC50 was > 67.6 µM.
For `COc1cccc(NC(=O)NC2CCN(C(C)C)CC2)c1` [B60], the IC50 was > 67.6 µM.
With `COc1cccc(NC(=O)NC2CCN(Cc3ccccc3)CC2)c1` [B61] the IC50 was > 67.6 µM.
`CCc1ccc(NC(=O)NC2CCN(C(C)C)CC2)cc1` [B62] was tested, and the IC50 was > 67.6 µM.
With `Cc1ccc(NC(=O)NC2CCN(Cc3ccccc3)CC2)cc1C` [B63] the IC50 was > 67.6 µM.
`O=C(Nc1cccc(F)c1)NC1CCN(Cc2ccccc2)CC1` [B64] was tested, and the IC50 was > 67.6 µM.
`CC(=O)N1CCC(N(C(=O)Nc2cccc(C(F)(F)F)c2)C(C)C)CC1` [B65] was tested, and the IC50 was > 67.6 µM.
In the case of `CCOC(=O)c1ccccc1NC(=O)N(C(C)C)C1CCN(C(C)=O)CC1` [B66], the IC50 is reported as > 67.6 µM.
`CCOc1ccccc1NC(=O)N(C(C)C)C1CCN(C(C)=O)CC1` [B67] was tested, and the IC50 was > 67.6 µM.
For `COc1ccccc1NC(=O)N(Cc1ccco1)C1CCN(C(C)=O)CC1` [B68], the IC50 was > 67.6 µM.
With `CC(=O)N1CCC(N(Cc2ccco2)C(=O)Nc2ccc(C)c(C)c2)CC1` [B69] the IC50 was > 67.6 µM.
For `COc1ccc(NC(=O)N(Cc2ccco2)C2CCN(C(C)=O)CC2)cc1` [B70], the IC50 was > 67.6 µM.
`CC(=O)N1CCC(N(Cc2ccco2)C(=O)Nc2ccccc2Br)CC1` [B71] was tested, and the IC50 was > 67.6 µM.
For `CC(=O)N1CCC(N(Cc2ccco2)C(=O)Nc2cccc(C)c2)CC1` [B72], the IC50 was > 67.6 µM.
`CC(=O)N1CCC(N(Cc2ccco2)C(=O)Nc2ccc(Br)cc2)CC1` [B73] was tested, and the IC50 was > 67.6 µM.
For `CCc1ccccc1NC(=O)N(Cc1ccco1)C1CCN(C(C)=O)CC1` [B74], the IC50 was > 67.6 µM.
For `CCOC(=O)Cc1ccc(NC(=O)N(Cc2ccco2)C2CCN(C(C)=O)CC2)cc1` [B75], the IC50 was > 67.6 µM.
In the case of `CC(=O)N1CCC(N(Cc2ccco2)C(=O)Nc2ccccc2C(F)(F)F)CC1` [B76], the IC50 is reported as > 67.6 µM.
